# Data reported in patent publication US11337909B2, “Methods for modulating pigmentation by angiotensin-converting enzyme 2 modulation” (Max-Delbrück-Centrum für Molekulare Medizin in der …, priority 2017, dated 2022).
# pIC50, pKi: −log10 of the molar value. Entries after “also recorded” stand apart in the source; their conditions may differ. Structures can show the parent of a compound that is named as a salt.
# Tests used:
# ACE2 [1] = molecular target: T1, ACE2 (Homo sapiens, UniProt Q9BYF1); conditions: in vitro and in vivo; Shenoy et al; cited from earlier work
# Target sequence in this assay (Q9BYF1 18-805, species assumed): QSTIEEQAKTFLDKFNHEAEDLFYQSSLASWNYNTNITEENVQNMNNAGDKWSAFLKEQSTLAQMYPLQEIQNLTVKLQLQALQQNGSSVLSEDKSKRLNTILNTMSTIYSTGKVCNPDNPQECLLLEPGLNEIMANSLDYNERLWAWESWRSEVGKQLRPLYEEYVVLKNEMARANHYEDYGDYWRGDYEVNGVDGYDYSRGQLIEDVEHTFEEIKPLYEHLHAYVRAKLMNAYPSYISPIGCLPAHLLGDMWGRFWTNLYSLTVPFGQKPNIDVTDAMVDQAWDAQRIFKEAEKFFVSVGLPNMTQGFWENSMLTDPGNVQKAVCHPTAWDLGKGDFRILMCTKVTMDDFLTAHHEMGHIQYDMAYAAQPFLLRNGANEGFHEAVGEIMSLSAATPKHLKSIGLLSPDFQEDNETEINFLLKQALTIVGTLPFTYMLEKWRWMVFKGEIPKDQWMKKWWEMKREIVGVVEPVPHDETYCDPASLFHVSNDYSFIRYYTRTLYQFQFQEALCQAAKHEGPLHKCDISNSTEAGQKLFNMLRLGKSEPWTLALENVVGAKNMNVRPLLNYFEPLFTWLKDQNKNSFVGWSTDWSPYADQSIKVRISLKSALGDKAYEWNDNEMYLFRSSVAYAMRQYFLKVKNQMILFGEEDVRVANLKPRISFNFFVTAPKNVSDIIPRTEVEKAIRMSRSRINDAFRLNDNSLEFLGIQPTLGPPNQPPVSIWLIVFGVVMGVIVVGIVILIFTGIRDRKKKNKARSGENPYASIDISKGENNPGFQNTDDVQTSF
# tyrosinase (TYR) = experiment: Tyrosinase (TYR) expression in B16F10 cells by real-time RT-PCR; format: cell-based, mouse; conditions: 1 nM aMSH + 10 ng/μl DIZE, 48 hours, FIG. 7; dihydrochloride
# Method: B16F10 mouse melanoma cells were incubated with 1 nM aMSH, 10 ng/μl diminazene aceturate (DIZE, ACE2 activator) or a combination of both for 48 hours and the expression of the melanin-synthesizing enzyme tyrosinase (TYR) was quantified by real-time RT-PCR; **p<0.01; *p<0.05.
# B16F10 mouse melanoma cells were incubated with 1 nM aMSH, 10 ng/μl diminazene aceturate (DIZE, ACE2 activator) or a combination of both for 48 hours and the expression of the melanin-synthesizing enzyme tyrosinase (TYR) was quantified by real-time RT-PCR.
# ACE2 [2] = experiment: ACE2 expression in B16F10 cells by real-time RT-PCR; format: cell-based, mouse; conditions: 10 ng/μl DIZE, 48 hours, FIG. 8
# Method: B16F10 mouse melanoma cells were incubated with 10 ng/μl diminazene aceturate (DIZE, ACE2 activator) for 48 hours and the expression of ACE2 was quantified by real-time RT-PCR; *p<0.05.
# [3] = test system: B16F10 mouse melanoma cells; experiment: Cell culture assay for melanogenesis in B16F10 melanoma cells; format: cell-based
# Excerpt: FIG. 2: Melanogenesis in B16F10 melanoma cells stimulated with α-MSH1-13 and α-MSH1-12. *** p<0.001 compared to control without α-MSH, +++, +p<0.001, p<0.05 α-MSH1-12 compared to the same concentration of α-MSH1-13.
# In wild-type mice, the inventors further confirmed previous studies in humans (Ham-ming et al., 2004, Grzegrzolka et al., 2013) showing that ACE2 is expressed in the skin.
# Tyrosinase = Tyrosinase mRNA expression in human abdominal skin biopsies; format: cell-based; conditions: for tyrosinase mRNA expression: FIG. 4
# Method: FIG. 4: ACE2 limits the efficiency of αMSH1-13 in human skin; Tyrosinase expression. Tyrosinase (melanin synthesizing enzyme) mRNA expression was measured in human abdominal skin biopsies after treatment with vehicle, 10 nM αMSH1-13, 10 nM αMSH1-13+100 nM of the ACE2-Inhibitor MLN4760, or 100 nM MLN4760 alone.
# (§1) Biopsies were treated with vehicle, 10 nM αMSH1-13, 10 nM αMSH1-13+100 nM of the ACE2-Inhibitor MLN4760, or 100 nM MLN4760 alone.
# ACE2 [4] = molecular target: T1, ACE2; conditions: ACE2 inhibitor; cited from earlier work
# Target sequence in this assay (Q9BYF1 18-805, species assumed): as above
# [5] = test system: human abdominal skin biopsies; experiment: Fontana-Masson melanin staining in human abdominal skin biopsies; format: cell-based; conditions: FIG. 5
# Method: FIG. 5: ACE2 limits the efficiency of αMSH1-13 in human skin; Fontana-Masson staining in human abdominal skin biopsies. Melanin was stained black by Fontana-Masson staining in human abdominal skin biopsies after treatment with vehicle, 10 nM αMSH1-13, or 10 nM αMSH1-13+100 nM of the ACE2-Inhibitor MLN476.
# as §1
# ACE2 [6] = molecular target: T1, ACE2; design: purchased Enzo life sciences, Plymouth meeting, PA; conditions: Kulemina and Ostrov; cited from earlier work
# Target sequence in this assay (Q9BYF1 18-805): as the sequence (Q9BYF1 18-805, species assumed) above
# ACE2 [7] = molecular target: T1, ACE2; conditions: Hernandez Prada et al; cited from earlier work
# Target sequence in this assay (Q9BYF1 18-805, species assumed): as above
# ACE2 [8] = molecular target: T1, ACE2; conditions: Mores et al; read-out: Ki value toward ACE2; cited from earlier work
# Target sequence in this assay (Q9BYF1 18-805, species assumed): as above
molecule,measurement,setting,value
"N=C(N)c1ccc(/N=N/Nc2ccc(C(=N)N)cc2)cc1 [DIZE, 4-[2-(4-carbamimidoylphenyl)iminohydrazinyl]benzenecarboximidamide dihydrochloride]",enhancement of the enzymatic activity of ACE2,ACE2 [1],enhance the enzymatic activity of ACE2
same,"tyrosinase (TYR) expression, effect on αMSH stimulation",tyrosinase (TYR),inhibits the stimulating effect of aMSH; also recorded: inhibits the stimulating effect of αMSH
same,ACE2 expression,ACE2 [2],stimulates ACE2 expression
"CC(C)C[C@H](N[C@@H](Cc1cncn1Cc1cc(Cl)cc(Cl)c1)C(=O)O)C(=O)O [MLN-4760, (2S)-2-[[(1S)-1-carboxy-2-[3-[(3,5-dichlorophenyl)methyl]imidazol-4-yl]ethyl]amino]-4-methylpentanoic acid]",effect on the ACE2-mediated inhibition of α-MSH1-13 melanogenic effect,"[3]; B16F10 cells, α-MSH1-13 + human recombinant ACE2, FIG. 3",inhibits the effect of ACE2
same,"tyrosinase mRNA expression, effect on αMSH1-13 stimulation","Tyrosinase; 10 nM αMSH1-13 + 100 nM MLN4760, FIG. 4",This effect is increased by ACE2 inhibition
same,tyrosinase mRNA expression,Tyrosinase; 100 nM MLN4760 alone,ACE2 inhibition alone already stimulates tyrosinase expression
same,pIC50,ACE2 [4],9.30
same,"melanin levels (Fontana-Masson staining), effect on αMSH1-13 increase",[5]; 10 nM αMSH1-13 + 100 nM ACE2 inhibitor,This effect is further increased by ACE2 inhibition
"Cc1ccc(S(=O)(=O)Oc2ccc3oc4c(CO)ccc(NCCN(C)C)c4c(=O)c3c2)cc1 [XNT, [8-(2-dimethylaminoethylamino)-5-(hydroxymethyl)-9-oxoxanthen-2-yl]4-methyl-benzenesulfonate]",increase of the velocity of the enzyme (rate of catalysis),ACE2 [6],approximately twofold
same,enhancement of ACE2 activity,ACE2 [7],enhance ACE2 activity in a dose-dependent manner
CC(=O)NC(Cc1c[nH]cn1)C(=O)N1CCCC1P(=O)(O)CC(Cc1cc(-c2ccccc2)no1)C(=O)O (stereo not shown) [compound 41],pKi,ACE2 [8],9.40
O=C1OC2(c3ccc(O)cc3Oc3cc(O)ccc32)c2cccc3cccc1c23 [resorcinolnaphthalein],enhancement of ACE2 activity,ACE2 [7],enhance ACE2 activity in a dose-dependent manner
human recombinant ACE2: human recombinant angiotensin-converting enzyme 2,effect of added ACE2 on melanogenic activity of α-MSH1-13,"[3]; B16F10 cells, with α-MSH1-13, FIG. 3 upper panel",Inhibition of the melanogenic effect of α-MSH1-13; also recorded: reduces its melanogenic activity
α-MSH1-12: expected ACE2 digestion product of α-MSH1-13 (SYSMEHFRWGKP),melanogenic activity relative to α-MSH1-13,"[3]; B16F10 mouse melanoma cells, FIG. 2",at least 100 times less active
"α-MSH1-13: α-melanocyte stimulating hormone, 13-amino-acid peptide hormone",tyrosinase mRNA expression,Tyrosinase; 10 nM αMSH1-13 vs vehicle,stimulates tyrosinase expression
same,melanin levels (Fontana-Masson staining),[5]; 10 nM αMSH1-13 vs vehicle,increases melanin levels
